The subject of assay [1] is Klebsiella pneumoniae (4 strains). As to the kind of experiment: MIC, broth microdilution, iron-deficient MH medium. The format is cell-based. The method, then: (§1) Supplier of the strains: all of the above strains were provided by Sichuan Primed Shines Bio-tech Co., Ltd. A single colony was isolated by streaking on agar plates for each strain prior to the experiment, and the cells freshly cultured at 37° C. overnight were appropriately diluted for the experiment.
(§2) Medium: MH liquid medium (OXOID).
(§3) Culture condition: cells were incubated at 35-37° C. for 16-18 h.
(§4) The broth microdilution method recommended by Clinical and Laboratory Standards Institute (CLSI), Performance Standards for Antimicrobial Susceptibility Testing; Twenty-Third Informational Supplement, M02-All, M07-A9 and M11-A8, 2013 was used to determine the MIC value of each test sample against each test strain in the normal MH medium and iron-deficient MH medium.
(§5) BPL was added to the normal MH medium to obtain a final concentration of 16 mg/L; According to the method in Section 1.2.1, 100 μl of each test sample solution at different concentrations was aspirated to the 1st to 10th well in a 96-well sterile polystyrene plate to obtain the final drug concentrations of 16, 8, 4, 2, 1, 0.5, 0.25, 0.125, 0.06, and 0.03 mg/L, respectively. Then, 100 μl of the test bacterial liquid was added to each well (200 μl per well), and the final concentration of the bacterial liquid was approximately 10^4 CFU/ml. After sealing, it was placed in a 35-37° C. incubator for 18-20 hours for testing the result. The OD600 value was measured by a microplate reader, Minimal Inhibitory Concentration (MIC) of a drug is the lowest concentration of the drug which prevents growth of bacteria in the wells.
In general terms: In broth dilution the organism is exposed to a series of concentrations in liquid medium.

Assay [2] relates to Acinetobacter baumannii (4 strains). As to the kind of experiment: MIC, broth microdilution, iron-deficient MH medium. The format is cell-based. The note with it: Acinetobacter baumannii; iron-deficient MH medium (16 mg/L 2,2'-bipyridine); multidrug-resistant clinical isolates (integron I, OXA23); read-out: Antibacterial activity MIC, Acinetobacter baumannii (4 strains). The method, then:
as §1, §2, §3, §4, §5

Assay [3] concerns Escherichia coli (4 strains). As to the kind of experiment: MIC, broth microdilution, iron-deficient MH medium. The conditions noted are these: Escherichia coli; iron-deficient MH medium (16 mg/L 2,2'-bipyridine); clinical isolates (ESBLs); read-out: Antibacterial activity MIC, Escherichia coli (4 strains). It counts as cell-based. How it is done:
as §1, §2, §3, §4, §5

Assay [4] concerns Pseudomonas aeruginosa (4 strains). As to the kind of experiment: MIC, broth microdilution, iron-deficient MH medium. The format is cell-based. The conditions noted are these: Pseudomonas aeruginosa; iron-deficient MH medium (16 mg/L 2,2'-bipyridine); multidrug-resistant clinical isolates (integrator I, IMP4); read-out: Antibacterial activity MIC, Pseudomonas aeruginosa (4 strains). The method, then: as §1, §2, §3, §4, §5

The test system of assay [5] is Escherichia coli ATCC 35218. As to the kind of experiment: MIC, broth microdilution, normal MH medium. The conditions noted are these: Escherichia coli, ATCC35218, quality control strain, read-out: Antibacterial activity MIC, Escherichia coli ATCC 35218. The format is cell-based. The method, then: Strain for quality control: Escherichia coli ATCC35218, purchased from National Center of Clinical Laboratory.
as §2, §3, §4
After diluting each sample to different concentrations with normal MH medium, 100 μl of each test sample solution at different concentrations was separately aspirated onto a 96-well sterile polystyrene plate. Drug solutions were added to the 1st to 10th well with the final concentrations of 16, 8, 4, 2, 1, 0.5, 0.25, 0.125, 0.06, and 0.03 mg/L in each well, respectively. The 11th well, as a blank control, was not added with drugs and bacteria. The 12th well, as a bacterial growth control, was added with bacteria but no drug.
The test bacterial liquid was adjusted to a bacterial suspension of 0.5 Mcfarland standard with physiological saline, and diluted with MH broth at 1:100, and then added to the drug solution so that a final concentration of the bacterial liquid was approximately 10^4 CFU/ml; 100 μl of the bacterial liquid was further added to each of the above wells (the total volume in each well is 200 μl), which was sealed and placed in a 35-37° C. incubator for 18-20 h for testing the result. The OD600 value was measured by a microplate reader, Minimal Inhibitory Concentration (MIC) of a drug is the lowest concentration of the drug which prevents growth of bacteria in the wells. 1.2.2 MIC in iron-deficient MH medium

Assay [6] has as its system multidrug-resistant Klebsiella pneumoniae KR15-4 (KPC2). As to the kind of experiment: In vivo efficacy in mice systemically infected with multidrug-resistant Klebsiella pneumoniae KR15-4 (KPC2). The conditions noted are these: Klebsiella pneumoniae; Kunming mice, intraperitoneal infection, drug s.c. 0.5 h and 4 h after infection, deaths over 7 days, Bliss method; read-out: ED50 Subcutaneous injection. How it is done: 4.1 Test strains: clinically isolated pathogenic multidrug-resistant Klebsiella pneumoniae KR15-4 (KPC2), provided by Sichuan Primed Shines Bio-tech Co., Ltd.
4.2 Test animals: Kunming mice, age: 4 to 5 weeks, weight: 18 to 22 g, half male, half female, SPF grade.
4.3 Test methods: Mice were randomly divided into several groups, 5 mice for each group, half male and half female, and 4 doses for each test drug: 12.5, 25, 50 and 100 mg/kg. The mice were intraperitoneally injected with 0.5 mL of 3.0×10^6 CFU/mL bacterial suspension for each mouse, and subcutaneously injected with the drug at the designed dose 0.5 h and 4 h after infection. The subcutaneous injection volume was 0.2 ml/20 g mouse weight; the number of deaths in mice was observed and recorded for 7 consecutive days. According to the number of deaths in mice, the half effective dose ED50 was calculated according to the Bliss method using the DAS 1.0 software, edited by Sun Ruiyuan et al.

Structures are written as SMILES. Structures can show the parent of a compound that is named as a salt. Some results are limits rather than exact numbers.

For `CC(C)C(O/N=C(\C(=O)N[C@@H]1C(=O)N(OS(=O)(=O)O)C1(C)C)c1csc(N)n1)c1cc(=O)c(O)cn1O` (stereo partly drawn) [Compound 12, (3S)-3-((Z)-2-(2-aminothiazol-4-yl)-2-((1-(1,5-dihydroxy-4-oxo-1,4-dihydropyridin-2-yl)methylisopropyloxy)imine)acetamido)-2,2-dimethyl-4-oxoazetidine-1-hydrogen sulfate], the MIC (usually the lowest concentration that inhibits growth of the organism) is 0.25 to 0.5 µg/mL in assay [1] (Klebsiella pneumoniae, iron-deficient MH medium (16 mg/L 2,2'-bipyridine), multi-drug resistant clinical isolates (KPC2), read-out: Antibacterial activity MIC, Klebsiella pneumoniae (4 strains)); 0.5 to 1 µg/mL in assay [2]; 0.03 to 0.25 µg/mL in assay [3]; 0.25 to 1 µg/mL in assay [4]; under 0.03 µg/mL in assay [5]. Moreover, in assay [1] (iron-deficient MH medium, from MIC of Table 3), the “times more effective than BAL30072 in inhibitory activity against Klebsiella pneumonia” value is 128-256 times. Moreover, the ED50 (as a rule, the dose that gives a 50% effect, or the effect in half of the subjects) in assay [6] came to 10.2 mg/kg.

The values are drawn from patent US10501454B2, “Monocyclic β-lactam-siderophore conjugate, and preparation method and use thereof” (Shanghai Institute of Materia Medica, Chinese Academy of …, priority 2016, dated 2019).
